Experimental findings from PubChem BioAssay AID1963833 (Molecular Pharmacology Branch, DTP, NCI, 2024) are described below.

The test has as its system 883617-216-R-J1-PDC complex spheroid viability. In words: Anticancer human tumor 883617-216-R-J1-PDC patient-derived bladder carcinoma cell line growth inhibition [POLQ]. Conditions: for viability, T/C: stronger effect = lower value. The protocol: Multicellular complex tumor spheroid response to Polymerase (POL) inhibitors (novobiocin, ART-558, RP6685) in combination with a variety of drugs and investigational agents in selected tumor cell lines
The POL inhibitors (novobiocin, ART-558, and RP6685) were evaluated both individually and in combination with standard of care and investigational anticancer small molecules within a complex spheroid model of solid tumors. . Complex spheroids include a stromal component modeled by human endothelial cells (HUVEC) and fibroblasts modeled by human mesenchymal stem cells (MSCs). The concentration ranges selected for each drug and investigational agent were based upon clinically achievable concentrations if the clinical Cmax of the agent was known.
Compounds. The drugs and investigational agents: novobiocin (NSC847541), ART-558 (NSC835418), RP-6685 (NSC848927), peposertib (NSC802822), ceralasertib (NSC780249), elimusertib (NSC800525), camonsertib (NSC841442), AZD-1390 (NSC803789), olaparib (NSC753686), talazoparib (NSC767125), rucaparib (NSC756644), sotorasib (NSC818433), MRTX-1133 (NSC836407), SN-38 (NSC673596), topotecan (NSC609699), epotoside (NSC141540), doxorubicin (NSC123127), gemcitabine (NSC613327), 5-fluorouracil (NSC19893), paclitaxel (NSC125973), vemurafenib (NSC761431), MSA-2 (NSC828583), SN-011 (NSC837082), adavosertib (NSC754352), prexasertib (NSC758257), carboplatin (NSC241240) and oxaliplatin (NSC266046), were obtained from the National Cancer Institute (NCI) Developmental Therapeutics Program Chemical Repository (21). The FDA-approved anticancer drug set is available from the Developmental Therapeutics Program at https://dtp.cancer.gov/organization/dscb/obtaining/. […] The stock solutions were prepared in dimethyl sulfoxide (DMSO, Sigma-Aldrich, St. Louis, MO, cat. D2650), except for the platinum compounds which were prepared in saline (Quality Biological, Gaithersburg, MD, cat. 114-055-101), at 800-fold the tested concentration and stored at -70 degrees C prior to their use. All drugs and investigational agents were tested over a range starting from a high concentration at or near the clinical Cmax and decreasing in half-log increments. If the clinical Cmax for an agent had not been determined, the highest concentration tested was 10 microM, except for SN-38, which was tested at a high concentration of 1 microM.
Cell Culture. All cells were maintained in an incubator at 37 degrees C and 5% CO2 with 95% humidity. The PDC lines were cultured according to standard operating procedures established by the NCI PDMR (https://pdmr.cancer.gov). Table 3 of the manuscript, lists the cell lines along with the number of the three cell types plated to form the mct-spheroids and media for tumor cell growth. After thawing, all PDC lines, except 997537-175-T-J1-PDC and 415267-285-R-J2-PDC, were cultured in Matrigel-coated flasks prepared with a working solution of 1X Ham's F-12 nutrient mix, without supplementation (Thermo Fisher Scientific, cat. 11765054), 100 U/mL penicillin-streptomycin (Thermo Fisher Scientific, cat. 15140122), and 2.5% Matrigel (Corning Inc., Corning, NY, cat. 354248) for the first three passages. The two PDC lines 997537-175-T-J1-PDC and 415267-285-R-J2-PDC were cultured on uncoated flasks. The 857933-349-R-J2-PDC line was cultured in 6C/Colon 1B media containing advanced DMEM/F-12 (Thermo Fisher Scientific, cat. 12634028), 10 mM HEPES (Thermo Fisher Scientific, cat. 15630080), 1X GlutaMAX supplement (Thermo Fisher Scientific, cat. 35050061), 0.1 mg/mL primocin (InvivoGen, San Diego, CA, cat. ant-pm-2), 10% defined fetal bovine serum, heat inactivated (HyClone Laboratories Inc., Logan, UT, cat. SH30070.03HI), 50% L-WRN conditioned media (ATCC, cat. CRL-3276), 1.25 mM N-Acetyl-L-cysteine (Sigma-Aldrich, cat. A9165), 10 mM nicotinamide (Sigma-Aldrich, cat. N0636), 1X B-27 supplement (Thermo Fisher Scientific, cat. 17504044), 1X N-2 supplement (Thermo Fisher Scientific, cat. […]

Several values for one entry are separate records, joined by “and”; a condition that tells them apart may be missing. Identical values can stand only once. Some results are limits rather than exact numbers.
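Also: spheroids exposed to compounds for seven days before readout.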

As a reminder, the viability, T/C is the ratio of treated to control. Usually IC50 stands for the point on the concentration scale where inhibition reaches its midpoint. In the case of `CCCS(=O)(=O)Nc1ccc(F)c(C(=O)c2c[nH]c3ncc(-c4ccc(Cl)cc4)cc23)c1F`, the viability, T/C reads like this: (compound 0.0316 µM) 107% and 115% and 95.1%; (compound 0.1 µM) 95.8% (2×) and 89.8%; (compound 0.316 µM) 102% and 90.4% and 116%; (compound 1 µM) 105% and 107% and 95.2%; (compound 3.16 µM) 79.3% and 101% and 95.3%; (compound 10 µM) 49.6% and 44.3% and 34.8%. In addition, the IC50 (curve of compound) was 9.88 µM and 8.91 µM and 7.5 µM.

As for `CCc1cc2c(N3CCc4c(cc(Cn5ccnc5)cc4-c4cn(C)nc4C(F)(F)F)C3=O)cc(C)nc2c(OC)n1` + Cc1cccc(N(C)C(=O)C2C(O)CCN2c2nc(C)cc(C(F)(F)F)c2C#N)c1, the half-maximal inhibitory concentration (IC50) by setting is: (curve of first compound, second compound 0.0316 µM) 7.4 µM; (curve of first compound, second compound 0.1 µM) 8.3 µM; (curve of first compound, second compound 0.316 µM) above 10 µM; (curve of first compound, second compound 1 µM) 7.69 µM; (curve of first compound, second compound 3.16 µM) above 10 µM; (curve of first compound, second compound 10 µM) 8.25 µM. Further, the viability, T/C (second compound 0.0316 µM, first compound 0.0316 µM) is 87.4%; the viability, T/C (second compound 0.0316 µM, first compound 0.1 µM) was 95.6%; the viability, T/C (second compound 0.0316 µM, first compound 0.316 µM) was 91.7%; the viability, T/C (second compound 0.0316 µM, first compound 1 µM) is 91.7%; the viability, T/C (second compound 0.0316 µM, first compound 3.16 µM) is 72.8%; the viability, T/C (second compound 0.0316 µM, first compound 10 µM) is 41.8%. In addition, the viability, T/C is 86.1% (second compound 0.1 µM, first compound 0.0316 µM); 102% (second compound 0.1 µM, first compound 0.1 µM); 94.5% (second compound 0.1 µM, first compound 0.316 µM); 97.6% (second compound 0.1 µM, first compound 1 µM); 72.8% (second compound 0.1 µM, first compound 3.16 µM); 45.6% (second compound 0.1 µM, first compound 10 µM). In addition, the viability, T/C is, setting by setting: (second compound 0.316 µM, first compound 0.0316 µM) 81.3%; (second compound 0.316 µM, first compound 0.1 µM) 89.2%; (second compound 0.316 µM, first compound 0.316 µM) 98.8%; (second compound 0.316 µM, first compound 1 µM) 83.8%; (second compound 0.316 µM, first compound 3.16 µM) 69.9%; (second compound 0.316 µM, first compound 10 µM) 53%. Moreover, the viability, T/C (second compound 1 µM, first compound 0.0316 µM) is 89.1%; the viability, T/C (second compound 1 µM, first compound 0.1 µM) was 88.3%; the viability, T/C (second compound 1 µM, first compound 0.316 µM) was 106%; the viability, T/C (second compound 1 µM, first compound 1 µM) was 92.5%; the viability, T/C (second compound 1 µM, first compound 3.16 µM) was 71.1%; the viability, T/C (second compound 1 µM, first compound 10 µM) was 43.8%. Further, the viability, T/C runs as follows: (second compound 3.16 µM, first compound 0.0316 µM) 99.8%; (second compound 3.16 µM, first compound 0.1 µM) 94.4%; (second compound 3.16 µM, first compound 0.316 µM) 102%; (second compound 3.16 µM, first compound 1 µM) 84.8%; (second compound 3.16 µM, first compound 3.16 µM) 74.6%; (second compound 3.16 µM, first compound 10 µM) 58.3%. Besides, the viability, T/C is, setting by setting: (second compound 10 µM, first compound 0.0316 µM) 107%; (second compound 10 µM, first compound 0.1 µM) 110%; (second compound 10 µM, first compound 0.316 µM) 93%; (second compound 10 µM, first compound 1 µM) 95.3%; (second compound 10 µM, first compound 3.16 µM) 69.9%; (second compound 10 µM, first compound 10 µM) 45.9%.

Consider `Cn1ncnc1[C@H]1c2n[nH]c(=O)c3cc(F)cc(c23)N[C@@H]1c1ccc(F)cc1`, for which the viability, T/C reads like this: (compound 0.000316 µM) 94.7% and 100% and 90.6%; (compound 0.001 µM) 85.8% and 100% and 85.9%; (compound 0.00316 µM) 87.6% and 95.6% and 95.1%; (compound 0.01 µM) 83.5% and 90% and 77.4%; (compound 0.0316 µM) 70% and 80.9% and 83.5%; (compound 0.1 µM) 65.7% and 71.8% and 69.7%. Besides, the IC50 (curve of compound) is above 0.1 µM.

On to `CC1COCCN1c1cc(C2(O)CC3CCC(C2)O3)c2cnn(-c3ccn[nH]3)c2n1` (stereo not drawn), for which the viability, T/C was 73.6% and 75.5% and 72.3% (compound 0.0316 µM); 55.3% and 49.3% and 45.5% (compound 0.1 µM); 50.6% and 44.3% and 45.2% (compound 0.316 µM); 30.4% and 30% and 34.4% (compound 1 µM); 23.1% and 26.1% and 31% (compound 3.16 µM); 22.6% and 20.5% and 20.6% (compound 10 µM). Further, the IC50 (curve of compound) is 0.213 µM and 0.137 µM and 0.135 µM.
